From US9241887B2, “Systems and methods for skin rejuvenation” (Sesvalia USA, LLC, priority 2009, dated 2016)

Key:
[1] = Antioxidant activity of active ingredients alone and combined (FIG. 1); details: for antioxidant activity relative to vehicle: ingredient alone, control = vehicle (mixture of ethanol and macrogol); for synergistic effect on antioxidant activity: ingredients combined; for antioxidant activity when combined with Vitamin C and Vitamin E: polyphenol derivatives combined with Vitamin C and Vitamin E
[2] = phospholipidic membranes; cited from earlier work
human skin = details: cited from earlier work
[3] = cited from earlier work
[4] = system: human polymorphonuclear leukocytes; details: cited from earlier work
[5] = gastrointestinal tract and skin; cited from earlier work
[6] = system: human keratinocyte cell lines; details: cited from earlier work
mild atopic dermatitis = details: 0.3% rosmarinic acid emulsion, topical application; cited from earlier work
[7] = system: seasonal allergic rhinoconjunctivitis; details: oral supplementation; cited from earlier work

Molecule: O=C1O[C@H]([C@@H](O)CO)C(O)=C1O [Vitamin C, ascorbic acid]
- antioxidant activity relative to vehicle [1]: more than twice as much antioxidant activity as the vehicle
- synergistic effect on antioxidant activity [1]: synergistic effect

Molecule: O=C(O)/C=C/c1ccc(O)c(O)c1 [caffeic acid, 3,4-dihydroxycinnamic acid]
- antioxidant activity when combined with Vitamin C and Vitamin E [1]: stronger antioxidant activity (more than twice)
- protection from UV-induced peroxidation [2]: protect phospholipidic membranes from UV-induced peroxidation
- protection from UVB-induced erythema (human skin): protect human skin from UVB-induced erythema

Molecule: COc1cc(/C=C/C(=O)O)ccc1O [ferulic acid, Ferulic acid]
- synergistic effect on antioxidant activity [1]: synergistic effect
- antioxidant activity when combined with Vitamin C and Vitamin E [1]: stronger antioxidant activity (more than twice)
- behaviour at acidic pH ([3]; acidic pH): precipitates into crystals

Molecule: O=C(CCc1ccc(O)cc1)c1c(O)cc(O)cc1O [phloretin, Phloretin]
- synergistic effect on antioxidant activity [1]: synergistic effect
- antioxidant activity when combined with Vitamin C and Vitamin E [1]: stronger antioxidant activity (more than twice)
- solubility in ethanol [3]: very soluble in ethanol
- solubility in water [3]: insoluble in water

Molecule: O=C(/C=C/c1ccc(O)c(O)c1)O[C@H](Cc1ccc(O)c(O)c1)C(=O)O [rosmarinic acid, alpha-o-caffeoyl-3,4-dihydroxyphenyl lactic acid]
- antioxidant activity when combined with Vitamin C and Vitamin E [1]: stronger antioxidant activity (more than twice)
- leukotriene B4 production [4]: reduce leukotriene B4 production
- prostaglandin E2 production [4]: augment prostaglandin E2 production
- absorption [5]: well absorbed through the gastrointestinal tract and the skin
- photoprotective effect against UVA-induced alterations [6]: photoprotective effects against alterations induced by UVA exposure
- symptoms of mild atopic dermatitis (mild atopic dermatitis): improves some symptoms of the disease including the erythema, transepidermal water loss, xerosis and pruritus
- treatment of seasonal allergic rhinoconjunctivitis [7]: effective treatment for seasonal allergic rhinoconjunctivitis

Molecule: Vitamin E
- antioxidant activity relative to vehicle [1]: more than twice as much antioxidant activity as the vehicle
